Experimental data taken from patent US20070154449A1, “TIGHT JUNCTION MODULATING PEPTIDES FOR ENHANCED MUCOSAL DELIVERY OF THERAPEUTIC COMPOUNDS” (Nastech Pharmaceutical Company Inc., priority 2005, published 2007).
No end group written: not given here.

Experiments:
[1] = tested on: in vitro epithelial tissue model; assay: Papp of drugs with and without PN159, in vitro tissue model; details: for Papp: Galantamine 40 mg/mL, pH 5.0
Protocol: In the present studies, 40 mg/ml galantamine in the lactate salt form was combined with 25, 50, and 100 μM PN159 in solution, pH 5.0 and osmolarity ˜270 mOsm. The combination was tested using an in vitro epithial tissue model to monitor galantamine permeation, transepithelial electrical resistance (TER), and the cytotoxicity of the formulation by LDH and MTT assays as described above. Permeation measurements for galantamine were conducted by standard HPLC analysis, as follows.
Galantamine concentration in the formulation and in the basolateral media (permeation samples) was determined using an isocratic LC (Waters Alliance) method with UV detection. • Column: Waters Symmetry Shield, C18, 5 um, 25×0.46 cm • Mobile phase: 5% ACN in 50 mM ammonium formate, pH 3.0 • Flow rate: 1 ml/min • Column temperature: 30° C. • Calibration curve: 0-400 μg/ml Galantamine HBr • Detection: UV at 285 nm
To evaluate permeabilizing activity in this context, 40 mg/ml galantamine in the lactate salt form was combined with 25, 50, and 100 μM PN159 in solution, pH 5.0 and osmolarity ˜270 mOsm. The combination was tested using an in vitro epithelal tissue model to monitor galantamine permeation, transepithelial electrical resistance (TER), and the cytotoxicity of the formulation by LDH and MTT assays.
For this purpose, in vitro tissue studies were performed on salmon calcitonin as a model therapeutic peptide in the absence and presence of […] PN159.

[2] = tested on: human-derived tracheal/bronchial epithelial cells (EpiAirway™ Tissue model system); assay: Transepithelial electrical resistance (TER), EpiAirway tissue model; format: cell-based; details: pH 7, 20 μl applied
Protocol: EpiAirway™ culture membranes were received the day before the experiments started. They are shipped in phenol red-free and hydrocortisone-free Dulbecco's Modified Eagle's Medium (DMEM). The cells are ciliated and psudostratefied, grown to confluency on Millipore Multiscreen Caco-2 96-well assay system comprised of a polycarbonate filter system. Upon receipt, the insert system will be stored unopened at 4° C. and/or cultured in 250 μl basal media per well (phenol red-free and hydrocortisone-free Dulbecco's Modified Eagle's Medium (DMEM)) at 37° C./5% CO2 for 24 hours before use.
TER measurements were taken using the REMS Autosampler (World Precision Instruments, Sarasota, Fla.) with the electrode leads. The electrodes and a tissue culture blank insert will be equilibrated for at least 20 minutes in MatTek Air-100™ medium with the power off prior to checking calibration. The background resistance of the insert system has been established by multiple measurements of a blank insert plate and the same value was used for each test on the platform. Time zero TER (TER0) was measured before incubation of the inserts with the test formulation. The top electrode will be as adjusted so that it is close to, but not making contact with, the top surface of the insert membrane. Background resistance of the blank insert should be about 5-20 ohms. For each TER determination, 100 μl of MatTek Air-100™ medium was added to the insert and 250 μl in the basal well followed by placement in the Endohm chamber. All TER values are reported as a function of the surface area of the tissue. Resistance was expressed as both Ohms*cm^2 and percent original TER value.
TER values were calculated as: [formula] [formula] Formula terms for TER calculation defined: […]
A decrease in TER value relative to the control value indicates a decrease in cell membrane resistance and an increase in mucosal epithelial cell permeability.
(§1) Of the total 300 μl volume for each test formulation, only a 20 μl sample was applied to the human-derived tracheal/bronchial epithelial cells (EpiAirway™ Tissue model system) in order to assess the effect each test formulation had on TER, LDH and sample permeation.

[3] = tested on: human-derived tracheal/bronchial epithelial cells (EpiAirway™ Tissue model system); assay: Cytotoxicity (LDH assay), EpiAirway tissue model; format: cell-based
Protocol: The amount of cell death was assayed by measuring the release of lactate dehydrogenase (LDH) from the cells into the apical medium using a CytoTox 96 Cytotoxicity Assay Kit (Promega Corp., Madison, Wis.). One percent Octylphenolpoly (ethyleneglycolether)×(Triton X-100™) diluted in phosphate buffered saline (PBS) causes 100% lysis in cultured cells and served herein as a positive control for the LDH assay. Following the one hour incubation period with a test formulation (refer to Table 4 in Example 2 for details of test formulations), the total liquid volume of each insert was brought to a final volume of 200 μl with culture medium. The apical medium was then mixed by pipetting four times with a multichannel pipette set to a 100 μl volume. After mixing, a 100 μl sample from the apical side of each insert was transferred to a new 96-well plate. The apical media samples were sealed with a plate sealer and stored at room temperature for same day analysis or stored overnight at 4° C. for analysis the next day. To measure LDH levels, 5 μl of the 100 μl apical media sample was diluted in 45 μl DPBS in a new 96-well plate. Fresh, cell-free culture medium will be used as a blank. Fifty microliters of substrate solution was added to each well and incubated for 30 minutes at room temperature away from direct light. Following the 30 minute incubation, 50 μl of stop solution was added to each well. Optical density (OD) was measured at 490 nm with a uQuant absorbance plate reader from Biotek Instruments. The measurement of LDH release into the apical media indicates relative cytotoxicity of the samples. Percent cytotoxicity for each test formulation was calculated by subtracting the measured absorbance of the PBS control (basal level of LDH release) from the measured absorbance of the individual test formulation and then dividing that value by the measured absorbance for the 1% Triton X-100™ positive control, multiplied by 100.
The formula used to calculate percent cytotoxicity is as follows: [formula] Osmolality
as §1

[4] = tested on: human-derived tracheal/bronchial epithelial cells (EpiAirway™ Tissue model system); assay: FITC-Dextran (FD3) permeation assay, EpiAirway tissue model; format: cell-based; details: for % FD3 Permeation: 1 h at 37° C.
Protocol: A FITC labeled dextran with a molecular weight 3000 (FD3) was used to assess the efficacy of individual TJMP on epithelial cell monolayer permeation. The tissue insert plates were transferred to a 96-well receiver plate containing 200 μl of DPBS++ as basal media. The apical surface of each tissue culture insert was incubated with a 20 μl sample of a single test formulation (refer to Table 4 in Example 2 for details of test formulations) for one hour at 37° C. in the dark on a shaker (˜100 rpm). Following the 1 hour incubation period, underlying basal media samples were taken from each tissue culture insert and temporarily stored in the dark at room temperature until FD3 levels were quantified by fluorescence spectroscopy. For FD3 measurements, a 150 μl of basal media sample was transferred to a black, clear bottom 96-well plate. Fluorescence emission at 528/20 following excitation at 485/20 were measured using a FLx800 fluorescence plate reader from Biotek Instruments.
Permeation was calculated as: [formula] [formula] Formula terms for permeation defined: […]
as §1

[5] = 25 μM peptide, 1 h incubation, % of 1% Triton X-100 control
[6] = 100 μM peptide, 1 h incubation, % of 1% Triton X-100 control
[7] = 250 μM peptide, 1 h incubation, % of 1% Triton X-100 control
[8] = 500 μM peptide, 1 h incubation, % of 1% Triton X-100 control
[9] = 1000 μM peptide, 1 h incubation, % of 1% Triton X-100 control

Q: For `CC(C)C[C@H](NC(=O)[C@H](CCCCN)NC(=O)CNC(=O)[C@H](CC(C)C)NC(=O)[C@@H](NC(=O)[C@@H]1CSSC[C@H](N)C(=O)N[C@@H](CO)C(=O)N[C@@H](CC(N)=O)C(=O)N[C@@H](CC(C)C)C(=O)N[C@@H](CO)C(=O)N[C@@H]([C@@H](C)O)C(=O)N1)C(C)C)C(=O)N[C@@H](CO)C(=O)N[C@@H](CCC(N)=O)C(=O)N[C@@H](CCC(=O)O)C(=O)N[C@@H](CC(C)C)C(=O)N[C@@H](Cc1c[nH]cn1)C(=O)N[C@@H](CCCCN)C(=O)N[C@@H](CC(C)C)C(=O)N[C@@H](CCC(N)=O)C(=O)N[C@H](C(=O)N[C@@H](Cc1ccc(O)cc1)C(=O)N1CCC[C@H]1C(=O)N[C@@H](CCCNC(=N)N)C(=O)N[C@H](C(=O)N[C@@H](CC(N)=O)C(=O)N[C@H](C(=O)NCC(=O)N[C@@H](CO)C(=O)NCC(=O)N[C@H](C(=O)N1CCC[C@H]1C(N)=O)[C@@H](C)O)[C@@H](C)O)[C@@H](C)O)[C@@H](C)O` [Calcitonin, salmon calcitonin], which “fold increase in Papp of calcitonin with PN159” value [1] is on record?
A: The value was 23-47 fold.

Q: Which results are given for `COc1ccc2c3c1O[C@H]1C[C@@H](O)C=C[C@@]31CCN(C)C2` [Galantamine, galantamine]?
A: fold increase in Papp of galantamine with PN159 ([1]; 40 mg/ml galantamine lactate, pH 5.0, with 25, 50, 100 PN159 versus without): 2.5-3.5 fold; Papp ([1]; [PN159] 0 μM): 2.1 ×10⁻⁶ cm/s; Papp ([1]; [PN159] 0 μM, listed as galantamine): about 2.1×10^−6 cm/s; Papp ([1]; [PN159] 25 μM): 5.1 ×10⁻⁶ cm/s; Papp ([1]; [PN159] 50 μM): 6.2 ×10⁻⁶ cm/s; Papp ([1]; [PN159] 100 μM): 7.2 ×10⁻⁶ cm/s

Q: How did the “fold increase in Papp of PTH1-34 with PN159” value [1] turn out when `CC[C@H](C)[C@H](NC(=O)[C@H](CCC(=O)O)NC(=O)[C@H](CO)NC(=O)[C@@H](NC(=O)[C@@H](N)CO)C(C)C)C(=O)N[C@@H](CCC(N)=O)C(=O)N[C@@H](CC(C)C)C(=O)N[C@@H](CCSC)C(=O)N[C@@H](Cc1cnc[nH]1)C(=O)N[C@@H](CC(N)=O)C(=O)N[C@@H](CC(C)C)C(=O)NCC(=O)N[C@@H](CCCCN)C(=O)N[C@@H](Cc1cnc[nH]1)C(=O)N[C@@H](CC(C)C)C(=O)N[C@@H](CC(N)=O)C(=O)N[C@@H](CO)C(=O)N[C@@H](CCSC)C(=O)N[C@@H](CCC(=O)O)C(=O)N[C@@H](CCCN=C(N)N)C(=O)N[C@H](C(=O)N[C@@H](CCC(=O)O)C(=O)N[C@@H](Cc1c[nH]c2ccccc12)C(=O)N[C@@H](CC(C)C)C(=O)N[C@@H](CCCN=C(N)N)C(=O)N[C@@H](CCCCN)C(=O)N[C@@H](CCCCN)C(=O)N[C@@H](CC(C)C)C(=O)N[C@@H](CCC(N)=O)C(=O)N[C@@H](CC(=O)O)C(=O)N[C@H](C(=O)N[C@@H](Cc1cnc[nH]1)C(=O)N[C@@H](CC(N)=O)C(=O)N[C@@H](Cc1ccccc1)C(=O)O)C(C)C)C(C)C` [PTH1-34, human parathyroid hormone 1-34] was run?
A: Its value is 3-5 fold.

Q: How did the “% T0 TER” value ([2]; 25 μM peptide) turn out when CNGRCGGKKKLKLLLKLL [PN679] was run?
A: The value was 70%.

Q: And the “% T0 TER” value ([2]; 100 μM peptide)?
A: Its value is 7%.

Q: And the “% T0 TER” value ([2]; 250 μM peptide)?
A: Its value is 2%.

Q: What about the “% T0 TER” value ([2]; 500 μM peptide) of the same compound?
A: Its value is −2%.

Q: And the “% T0 TER” value ([2]; 1000 μM peptide)?
A: Its value is −2%.

Q: What about the LDH [3, 5] of the same compound?
A: Its LDH is 1%.

Q: And the LDH [3, 6]?
A: The LDH was 23%.

Q: And the LDH [3, 7]?
A: The LDH was 38%.

Q: What about the LDH [3, 8] of the same compound?
A: Its LDH is 50%.

Q: What about the LDH [3, 9] of the same compound?
A: The LDH was 51%.

Q: What about the “% FD3 Permeation” value ([4]; 25 μM peptide) of the same compound?
A: Its value is 0%.

Q: And the “% FD3 Permeation” value ([4]; 100 μM peptide)?
A: The value was 7%.

Q: What about the “% FD3 Permeation” value ([4]; 250 μM peptide) of the same compound?
A: Its value is 8%.

Q: And the “% FD3 Permeation” value ([4]; 500 μM peptide)?
A: The value was 10%.

Q: And the “% FD3 Permeation” value ([4]; 1000 μM peptide)?
A: The value was 10%.

Q: And the optimal concentration ([4]; based on observed TER reduction, sample permeation and cytotoxicity (LDH release))?
A: Its optimal concentration is 100 µM.

Q: How did the LDH [3, 5] turn out when LRKLRKRLLRLRKLRKRLLR-NH2 [PN745] was run?
A: Its LDH is 11%.

Q: And the LDH [3, 6]?
A: The LDH was 28%.

Q: What about the LDH [3, 7] of the same compound?
A: Its LDH is 45%.

Q: What about the LDH [3, 8] of the same compound?
A: The LDH was 45%.

Q: And the LDH [3, 9]?
A: Its LDH is 45%.

Q: Which LDH ([3]; 1% Triton X-100, positive (100% release) control) does the source give for “Octylphenolpoly (ethyleneglycolether)× [Triton X-100, reference compound]” here?
A: The LDH was 100%.
